According to BindingDB's records for doi:10.7270/Q21R6P59 (German University In Cairo, 2011):

The compounds below were run against cGMP-specific 3',5'-cyclic phosphodiesterase (Homo sapiens, UniProt O76074) (assay: Phosphodiesterase Inhibition Assay).
Procedure: PDE activity was measured using a modification of the IMAP fluorescence polarization phosphodiesterase assay from Molecular Devices. The assay was modified to use tetramethylrhodamine (TAMRA-) cGMP as substrate. PDE hydrolysis of the fluorescent labeled substrate allows it to bind the IMAP binding reagent, which results in increased FP.

| Structure (SMILES) | IC50 |
| --- | --- |
| COC(=O)[C@@H]1Cc2c([nH]c3ccccc23)[C@H](c2ccc(OC)cc2OC)N1 [PDE5 Inhibitor, 4] | 6400 nM |
| CCn1c(O)c2n(c1=O)[C@@H](c1ccc(OC)cc1OC)c1[nH]c3ccccc3c1C2 [PDE5 Inhibitor, 6] | 720 nM |
| CCn1c(O)c2n(c1=O)[C@H](c1ccc(OC)cc1OC)c1[nH]c3ccccc3c1C2 [PDE5 Inhibitor, 8] | 360 nM |
| COc1ccc([C@H]2c3[nH]c4ccccc4c3Cc3c(O)n(C(C)(C)C)c(=O)n32)c(OC)c1 [PDE5 Inhibitor, 9] | 2400 nM |
| COc1ccc([C@@H]2c3[nH]c4ccccc4c3Cc3c(O)n(C(C)(C)C)c(=O)n32)c(OC)c1 [PDE5 Inhibitor, 12] | 550 nM |
| C=CCn1c(O)c2n(c1=S)[C@H](c1ccc(OC)cc1OC)c1[nH]c3ccccc3c1C2 [PDE5 Inhibitor, 19] | 560 nM |
